Assays:
male Wistar rats = experiment: Renal ischemia-reperfusion (I/R) in anesthetized rats with BMOV infusion; format: in vivo, rat
Experimental: Thirty two male Wistar rats (Harlan Netherlands BV, Horst, The Netherlands) with a mean body weight of 280±30 grams were used in this study. The animals were quarantined prior to start of the investigation for 1 week to permit acclimatization to their new environment and were housed in pairs in conventional cages in a light-controlled room kept at 22±1° C. with a relative humidity of 55±10%. All animals received standard laboratory rat chow and water for consumption ad libitum.
All animals were initially anesthetized with a mixture of ketamine (Nimatek, Eurovet Animal Health BV, Bladel, The Netherlands; 90 mg/kg), dexmedetomidine (Dexdomitor, Pfizer Animal Health BV, Capelle aan den IJssel, The Netherlands; 0.5 mg/kg), and atropine sulfate (Centrafarm BV, Etten-Leur, The Netherlands; 0.05 mg/kg) by intraperitoneal injection. Once anesthetized, the area between the thoracic manubrium and chin and the left flank covering the left kidney were shaved and cleaned prior to initiating the surgical procedure. During the remainder of the surgical preparation and experimental procedures, anesthesia was maintained via tracheotomy and mechanical ventilation with an inspired oxygen fraction (FiO2) of 0.4. Body temperature was maintained at 37±0.5° C. during the entire experiment. The ventilator settings were adjusted to maintain an arterial pCO2 between 35 and 40 MmHg.
For drug and fluid administration and hemodynamic monitoring, three vessels were cannulated with polyethylene catheters (outer diameter=0.9 mm; Braun, Melsungen, Germany). A catheter in the right carotid artery was connected to a pressure transducer to monitor arterial blood pressure and heart rate. The right jugular vein was cannulated for continuous infusion of Ringer's lactate (Baxter, Utrecht, The Netherlands) at a rate of 15 ml/kg/hr. The femoral artery was cannulated for withdrawing blood samples for blood gas analysis. Animals were kept under general anesthesia during all experiments and received continuous intravenous diluted ketamine or analgesic drug infusions. The left kidney was exposed, decapsulated, and immobilized in a Lucite (i.e. poly (methyl methacrylate); PMMA) custom made kidney cup via a ˜4 cm incision on the left flank. The renal artery and vein were carefully separated to preserve the surrounding nerves and adrenal gland. A perivascular ultrasonic transient time flow probe (type 0.7 RB; Transonic Systems, Ithaca, N.Y., USA) was placed around the left renal artery and connected to a flow meter (T206; Transonic Systems, Ithaca, N.Y., USA) to allow continuous measurement of renal blood flow (RBF). The left ureter was isolated, ligated, and cannulated with a polyethylene catheter (outer diameter=0.9 mm; Braun, Melsungen, Germany) for urine collection. A small piece of aluminum foil (10×10 mm) was placed on the dorsal site of the renal vein to prevent contribution of juxtaposed and underlying tissues from interfering with the phosphorescence signal in the venous pO2 measurement. After the surgical protocol (˜60 min), one optical fiber was placed 1 mm above the decapsulated kidney and another optical fiber 1 mm above the renal vein to measure oxygenation using a phosphorescence lifetime technique (20). Oxyphor G2 (Oxygen Enterprises, Philadelphia, Pa., USA; 6 mg/kg) was subsequently infused intravenously for 5 min, followed by 30 min of stabilization time.
The operation field was covered with a humidified gauze compress throughout the entire experiment to prevent drying of the exposed tissues in the surgical field. The phosphorescence lifetime measurements have been described in more details elsewhere (20). The experiment was terminated by infusion of 1 ml of 3 M potassium chloride. Finally, the kidney was removed, weighed, and processed for histological evaluation. The correct placements of the catheters were also checked postmortem. […]

critically ill patients = conditions: intensive insulin therapy, cited from earlier work
[1] = BMOV 7 and 15 mg/kg infusion, 30 min ischemia, 90 min reperfusion, effect not dose-dependent
[2] = high dose BMOV (15 mg/kg) compared to low dose (7 mg/kg)
[3] = kidney immunohistochemistry after 30 min ischemia, 90 min reperfusion, vs I/R control, dose-dependent

Compound	mean arterial pressure (male Wistar rats; [1])	microvascular oxygenation in the renal cortex (male Wistar rats; [1])	microvascular oxygenation in the renal medulla (male Wistar rats; [1])	renal blood flow (male Wistar rats; [1])	renal oxygen delivery (male Wistar rats; [1])	renal oxygen utilization efficiency (VO2/Tna+) (male Wistar rats; [1])	renal hemodynamics (male Wistar rats; FIG. 2, 30 min ischemia, 90 min reperfusion)	NGAL levels (male Wistar rats; [2])	iNOS expression (male Wistar rats; [2])	inflammatory activation (IL-6, iNOS expression, MPO-stained leukocytes) (male Wistar rats; [3])	renal injury (biomarkers NGAL, L-FABP) (male Wistar rats; [3])	overall ICU mortality (critically ill patients; reduced from 8%) [%]	ICU mortality among patients requiring more than five days intensive care (critically ill patients; reduced from 20.2%) [%]
Cc1occc(=O)c1[O-].Cc1occc(=O)c1[O-].[O]=[V+2] [BMOV, bis(maltolato)oxovanadium(IV)]	did not affect	significantly increased	significantly increased	did not affect	did not affect	increased	did not affect	significantly lower	significantly lower	significantly decreased	significantly decreased		
insulin: intensive insulin therapy in critically ill ICU patients, literature												4.6	10.6

— US11179401B2, “Use of vanadium compounds for maintaining normaglycemia in a mammal” (CFM Pharma Holding BV, priority 2011, dated 2021)
